Measured values reported in patent US20250144067A1, “PERSONALIZED STARVATION THERAPY FOR CANCER” (Faeth Therapeutics, Inc., priority 2021, published 2025).
Read-outs that look alike come from different tables or passages of the source.

Assays:
[1] = system: NCI-H292 lung cancer cells; experiment: FDA drug screening, complete media vs cholesterol-free media without statin (TABLE 1); assay type: cell-based, human
[2] = system: NCI-H292 lung cancer cells; experiment: FDA drug screening, complete media vs cholesterol-free media with simvastatin (TABLE 2); assay type: cell-based, human
[3] = Complete minus Cholesterol-free, […]
[4] = NCI-H292 cells, cholesterol-free media without statin
[5] = NCI-H292 cells, FDA drug library screen, cholesterol-free media with simvastatin 0.04 μM
[6] = NCI-H292 cells, FDA drug library screen, complete media
[7] = complete media vs cholesterol-free media + simvastatin (0.04 μM), […]
[8] = Complete minus Cholesterol-free, greater than 0 enhanced anti-cancer activity, about 0 neutral, below 0 antagonist
[9] = NCI-H292 cells, FDA drug library screen, cholesterol-free media without statin
[10] = NCI-H292 cells, drug in cholesterol-free media with simvastatin 0.04 μM
[11] = NCI-H292 cells, drug in complete media
[12] = complete media vs cholesterol-free media + simvastatin (0.04 μM), >0 enhanced anti-cancer activity, about 0 neutral, <0 antagonist
[13] = NCI-H292 cells, cholesterol-free media without statin, FDA drug library screen
[14] = complete vs cholesterol-free media, >0 enhanced anti-cancer activity, about 0 neutral, <0 antagonist
[15] = complete media minus cholesterol-free media + simvastatin, >0 enhanced anti-cancer activity, about 0 neutral, <0 antagonist
[16] = complete media minus cholesterol-free media + simvastatin, […]
[17] = NCI-H292 cells, complete media, FDA drug library screen
[18] = NCI-H292 cells, cholesterol-free media with simvastatin 0.04 μM, cell growth value in FDA drug screen
[19] = NCI-H292 cells, complete media, cell growth value in FDA drug screen
[20] = NCI-H292 cells, complete media, FDA drug library screen (TABLE 2)
[21] = Complete minus Cholesterol-free, >0 enhanced anti-cancer activity, about 0 neutral, <0 antagonist
[22] = NCI-H292 cells, FDA library drug in cholesterol-free media with simvastatin 0.04 μM
[23] = NCI-H292 cells, FDA library drug in complete media

With Estradiol (cypionate) the Difference [1, 3] was −0.22, the Cholesterol-free [1, 4] was 1.127 and the Complete ([1]; NCI-H292 cells, complete media) was 0.9066. The “Cholesterol-free media + simvastatin (0.04 μM)” value [2, 5] was 0.9809, the “Complete Media” value [2, 6] was 0.8945 and the Difference [2, 7] was −0.09.
Work on Estramustine (phosphate sodium) yielded a Cholesterol-free [1] of 1.196, a Complete [1] of 0.9487 and a Difference [1] of −0.25. The “Cholesterol-free media + simvastatin (0.04 μM)” value [2] was 1.251 and the Difference [2] was −0.18.
With Fenoldopam (mesylate) the Difference [1, 8] was −0.12, the Cholesterol-free [1, 9] was 0.8131 and the Complete [1, 6] was 0.6882. For the same substance, the “Cholesterol-free media + simvastatin (0.04 μM)” value [2, 10] was 1.028, the “Complete Media” value [2, 11] was 0.7708 and the Difference [2, 12] was −0.26.
For Fenticonazole (Nitrate), the Cholesterol-free [1, 13] was 0.9899, the Difference [1, 14] was 0.08 and the “Cholesterol-free media + simvastatin (0.04 μM)” value [2, 5] was 0.6564. The “Complete Media” value [2, 6] was 1.167 and the Difference [2, 15] was 0.51.
For Fesoterodine (fumarate), the Difference [1, 3] was −0.24, the Cholesterol-free [1, 4] was 1.247 and the Complete ([1]; NCI-H292 cells, complete media) was 1.003. For the same substance, the “Cholesterol-free media + simvastatin (0.04 μM)” value [2, 5] was 0.9771, the “Complete Media” value [2, 6] was 1.278 and the Difference [2, 16] was 0.30.
Substance Flecainide (acetate) has a Cholesterol-free [1, 13] of 0.7015, a Complete [1, 17] of 1.125 and a Difference [1, 14] of 0.42. For the same substance, the “Cholesterol-free media + simvastatin (0.04 μM)” value [2, 5] was 1.399, the “Complete Media” value [2, 6] was 2.119 and the Difference [2, 15] was 0.72.
Fludarabine (phosphate) was tested, and the Difference [1, 3] was −0.10, the Complete [1, 6] was 0.9769 and the “Cholesterol-free media + simvastatin (0.04 μM)” value ([2]; NCI-H292 cells, cholesterol-free media with simvastatin 0.04 μM, […]) was 1.095. The “Complete Media” value ([2]; NCI-H292 cells, complete media, […]) was 1.138 and the Difference [2, 16] was 0.04.
For Flupirtine (Maleate), the Difference ([1]; Complete minus Cholesterol-free, greater than 0 enhanced anti-cancer activity, about 0 neutral, below 0 antagonists) was −0.56, the Cholesterol-free ([1]; NCI-H292 cells in cholesterol-free media without statin) was 1.589 and the “Cholesterol-free media + simvastatin (0.04 μM)” value [2, 18] was 0.9024. For the same substance, the “Complete Media” value [2, 19] was 0.9412 and the Difference [2, 15] was 0.04.
For Fluvoxamine (maleate), the Difference [1, 8] was −0.11, the Cholesterol-free [1, 9] was 1.142 and the “Cholesterol-free media + simvastatin (0.04 μM)” value ([2]; NCI-H292 cells, cholesterol-free media with simvastatin 0.04 μM, FDA drug library screen (TABLE 2)) was 0.9929. For the same substance, the “Complete Media” value [2, 20] was 0.9426 and the Difference ([2]; complete media minus cholesterol-free media + simvastatin (0.04 μM), >0 enhanced anti-cancer activity, about 0 neutral, <0 antagonist) was −0.05.
Gabexate (mesylate) was tested, and the Difference [1, 8] was −0.15, the Cholesterol-free [1, 9] was 1.126 and the Complete [1, 6] was 0.973. For the same substance, the “Cholesterol-free media + simvastatin (0.04 μM)” value [2, 10] was 1.435, the “Complete Media” value [2, 11] was 1.185 and the Difference [2, 12] was −0.25.
With Gadobutrol the Difference [1, 21] was 0.01, the Cholesterol-free [1, 13] was 0.939 and the Complete [1, 17] was 0.9511. The “Cholesterol-free media + simvastatin (0.04 μM)” value [2, 10] was 1.273, the “Complete Media” value [2, 11] was 1.022 and the Difference [2, 12] was −0.25.
Gadopentetate (dimeglumine) was tested, and the Difference [1, 3] was −0.06, the Cholesterol-free [1, 13] was 1.132 and the “Complete Media” value [2, 20] was 1.1. It also gave a Difference ([2]; complete media minus cholesterol-free media + simvastatin (0.04 μM), […]) of −0.05.
With Gadoxetate (Disodium) the Difference [1, 3] was −0.26, the Cholesterol-free [1, 4] was 1.164 and the Complete ([1]; NCI-H292 cells, complete media) was 0.9023. For the same substance, the “Cholesterol-free media + simvastatin (0.04 μM)” value [2, 5] was 1.553, the “Complete Media” value [2, 6] was 1.778 and the Difference [2, 16] was 0.22.
With Garenoxacin (Mesylate hydrate) the Cholesterol-free [1, 4] was 1.769, the Complete ([1]; NCI-H292 cells, complete media) was 1.3 and the Difference ([1]; complete vs cholesterol-free media, greater than 0 enhanced anti-cancer activity, about 0 neutral, below 0 antagonists) was −0.47. The “Cholesterol-free media + simvastatin (0.04 μM)” value [2, 10] was 1.436, the “Complete Media” value [2, 11] was 1.268 and the Difference [2, 12] was −0.17.
Gemifloxacin (mesylate) showed a Difference [1, 21] of −0.22, a Cholesterol-free [1, 4] of 1.118 and a Complete ([1]; NCI-H292 cells, complete media) of 0.9009. The “Cholesterol-free media + simvastatin (0.04 μM)” value [2, 5] was 0.9496, the “Complete Media” value [2, 6] was 1.098 and the Difference [2, 15] was 0.15.
With Gentamicin (sulfate) the Difference [1, 21] was 0.07, the Cholesterol-free [1, 13] was 0.9104 and the Complete [1, 17] was 0.9799. The “Cholesterol-free media + simvastatin (0.04 μM)” value [2, 18] was 0.8679, the “Complete Media” value [2, 19] was 0.9575 and the Difference [2, 15] was 0.09.
In the case of Gilteritinib hemifumarate, the Cholesterol-free [1, 13] is reported as 0.3721, the Complete [1, 17] is reported as 0.7198 and the Difference ([1]; complete vs cholesterol-free media, […]) is reported as 0.35. The “Cholesterol-free media + simvastatin (0.04 μM)” value [2, 22] was 0.9393, the “Complete Media” value [2, 23] was 0.4057 and the Difference [2, 7] was −0.53.
In the case of Gluconate (Calcium), the Difference [1, 3] is reported as −0.74, the Complete ([1]; NCI-H292 cells in complete media) is reported as 0.8786 and the “Cholesterol-free media + simvastatin (0.04 μM)” value [2, 22] is reported as 1.134. The “Complete Media” value [2, 23] was 0.8004 and the Difference [2, 7] was −0.33.
In the case of Goserelin (acetate), the Difference [1, 3] is reported as −0.26, the Cholesterol-free [1, 4] is reported as 1.173 and the Complete ([1]; NCI-H292 cells, complete media) is reported as 0.9084. The “Cholesterol-free media + simvastatin (0.04 μM)” value [2, 10] was 1.497, the “Complete Media” value [2, 11] was 1.249 and the Difference [2, 7] was −0.25.
